This note sets out measurements from patent US20220298141A1, “ENZYME INHIBITORS” (KALVISTA PHARMACEUTICALS LIMITED, priority 2019, published 2022).

Some results are limits rather than exact numbers.

T1 sequence (P03951 388-625 limits assumed): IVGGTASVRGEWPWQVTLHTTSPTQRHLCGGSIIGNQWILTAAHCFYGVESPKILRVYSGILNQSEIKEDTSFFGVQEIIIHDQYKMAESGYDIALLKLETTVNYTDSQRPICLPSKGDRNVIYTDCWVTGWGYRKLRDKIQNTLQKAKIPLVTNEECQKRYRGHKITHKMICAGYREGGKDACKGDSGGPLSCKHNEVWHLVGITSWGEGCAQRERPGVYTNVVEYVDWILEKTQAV
T1 sequence (P03951 19-387 partner limits assumed): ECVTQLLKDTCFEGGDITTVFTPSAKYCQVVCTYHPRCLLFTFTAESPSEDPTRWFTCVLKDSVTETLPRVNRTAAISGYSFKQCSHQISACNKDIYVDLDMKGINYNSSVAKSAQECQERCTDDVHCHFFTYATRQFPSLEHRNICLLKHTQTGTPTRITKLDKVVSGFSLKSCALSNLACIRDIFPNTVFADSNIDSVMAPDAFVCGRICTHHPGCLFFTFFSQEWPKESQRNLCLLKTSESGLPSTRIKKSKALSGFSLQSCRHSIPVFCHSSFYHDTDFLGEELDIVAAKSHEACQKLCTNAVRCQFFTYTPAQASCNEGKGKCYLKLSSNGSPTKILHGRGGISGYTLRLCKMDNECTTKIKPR

One assay has as its target T1, Human FXIa (Homo sapiens, UniProt P03951).
T1 construct: purchased Enzyme Research Laboratories
Put plainly: Determination of FXIa inhibitory activity in vitro (fluorogenic substrate Z-Gly-Pro-Arg-AFC). Format: biochemical. Particulars: Selectivity, Human FXIa (Enzyme Research Laboratories), 25° C.
`Nc1nccc2cc(CNC(=O)c3cc(Cl)cnc3NCc3ccccn3)ccc12` [Example 1.43]: the IC50 was greater than 40 µM.

As to `Nc1nccc2cc(CNC(=O)c3cc(Cl)cnc3Nc3ccc(N4CCOCC4)cc3)ccc12` [Example 1.44], the IC50 was greater than 40 µM.

For another assay, the target named is T2, Human Factor XIIa (Homo sapiens, UniProt P00748).
T2 construct: purchased Enzyme Research Laboratories
T2 sequence (P00748 373-615 limits assumed): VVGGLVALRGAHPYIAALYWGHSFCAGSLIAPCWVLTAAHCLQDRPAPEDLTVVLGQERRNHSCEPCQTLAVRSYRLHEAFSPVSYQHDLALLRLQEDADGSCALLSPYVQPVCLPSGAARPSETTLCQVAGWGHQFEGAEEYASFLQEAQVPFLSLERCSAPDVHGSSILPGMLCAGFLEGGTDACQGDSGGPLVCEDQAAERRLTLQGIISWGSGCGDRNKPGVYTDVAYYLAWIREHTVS
T2 sequence (P00748 20-372 partner limits assumed): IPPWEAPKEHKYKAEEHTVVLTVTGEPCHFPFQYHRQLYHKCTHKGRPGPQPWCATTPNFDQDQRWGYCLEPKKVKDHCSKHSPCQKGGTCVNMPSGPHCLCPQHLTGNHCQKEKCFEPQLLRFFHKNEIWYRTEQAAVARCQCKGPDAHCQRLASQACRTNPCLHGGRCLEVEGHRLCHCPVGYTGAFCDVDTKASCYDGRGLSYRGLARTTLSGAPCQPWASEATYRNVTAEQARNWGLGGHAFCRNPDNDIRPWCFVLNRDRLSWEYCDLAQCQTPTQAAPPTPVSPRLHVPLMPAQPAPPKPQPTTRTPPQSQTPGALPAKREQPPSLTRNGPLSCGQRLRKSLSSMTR
The experiment in a line: Determination of Factor XIIa inhibitory activity in vitro (fluorogenic substrate H-DPro-Phe-Arg-AFC). Format: biochemical. To be noted: Human Factor XIIa (Enzyme Research Laboratories), 25° C., read-out: Human FXIIa IC50. Here is the method: Determination of the % Inhibition for FXIIa
Factor XIIa inhibitory activity in vitro was determined using standard published methods (see e.g. Shori et al., Biochem. Pharmacol., 1992, 43, 1209; Baeriswyl et al., ACS Chem. Biol., 2015, 10 (8) 1861; Bouckaert et al., European Journal of Medicinal Chemistry 110 (2016) 181). Human Factor XIIa (Enzyme Research Laboratories) was incubated at 25° C. with the fluorogenic substrate H-DPro-Phe-Arg-AFC and various concentrations of the test compound. Residual enzyme activity (initial rate of reaction) was determined by measuring the […] and the IC50 value for the test compound was determined.
Consider `Nc1nccc2cc(CNC(=O)c3cc(Cl)cnc3NCc3ccccn3)ccc12` [Example 1.43], for which the IC50 fell in the range of 3 to 10 µM.

`Nc1nccc2cc(CNC(=O)c3cc(Cl)cnc3Nc3ccc(N4CCOCC4)cc3)ccc12` [Example 1.44]: the IC50 fell in the range of 10 to 40 µM.

Consider `Nc1nccc2cc(CNC(=O)c3cnc(Oc4cccc(N5CCNCC5)c4)c(Cl)c3)ccc12` [Example 13.25], for which the IC50 lay within 3 to 10 µM.

For the compound `CN1CCCN(c2ncc(Cl)cc2C(=O)NCc2ccc3c(N)nccc3c2)CC1` [Example 16.01], the IC50 fell in the range of 10 to 40 µM.

For the compound `Nc1nccc2cc(CNC(=O)c3cc(Cl)cnc3N3CC(O)C3)ccc12` [Example 16.02], the IC50 was in the range of 10 to 40 µM.

As to `Nc1nccc2cc(CNC(=O)c3cc(Cl)cnc3N3CCN(c4ccncc4)CC3)ccc12` [Example 16.03], the IC50 fell in the range of 10 to 40 µM.

In the case of `COc1ccccc1-c1cncc(C(=O)NCc2ccc3c(N)nccc3c2)c1` [Example 19.01, N-((1-aminoisoquinolin-6-yl)methyl)-5-(2-methoxyphenyl)nicotinamide], the IC50 was in the range of 10 to 40 µM.

With `Nc1nccc2cc(CNC(=O)c3cncc(Br)c3)ccc12` [Example 19.02, N-((1-aminoisoquinolin-6-yl)methyl)-5-bromonicotinamide], the IC50 lay in the range of 10 to 40 µM.

In the case of `Nc1nccc2cc(CNC(=O)c3cnc4[nH]ccc4c3)ccc12` [Example 19.03, 1H-Pyrrolo[2,3-b]pyridine-5-carboxylic acid (1-amino-isoquinolin-6-ylmethyl)-amide], the IC50 is 10 to 40 µM.

Consider `Nc1nccc2cc(CNC(=O)c3cncc(Cl)c3)ccc12` [Example 19.04, N-((1-aminoisoquinolin-6-yl)methyl)-5-chloronicotinamide], for which the IC50 is 10 to 40 µM.

For the compound `Nc1nccc2cc(CNC(=O)c3cccc(Cl)c3)ccc12` [Example 19.05, N-((1-aminoisoquinolin-6-yl)methyl)-3-chlorobenzamide], the IC50 lay in the range of 10 to 40 µM.

`Nc1nccc2cc(CNC(=O)c3cnc(Cl)c(Cl)c3)ccc12` [Example 19.06, N-(1-Amino-isoquinolin-6-ylmethyl)-5,6-dichloro-nicotinamide]: the IC50 lay in the range of 3 to 10 µM.

For `Nc1nccc2cc(CNC(=O)c3cc(Cl)cnc3Oc3ccc(N4CCCC4=O)cc3)ccc12` [Example 22.01, N-((1-aminoisoquinolin-6-yl)methyl)-5-chloro-2-(4-(2-oxopyrrolidin-1-yl)phenoxy)nicotinamide], the IC50 is 3 to 10 µM.

With `Cn1cnc2cc(Oc3ncc(Cl)cc3C(=O)NCc3ccc4c(N)nccc4c3)ccc21` [Example 22.02], the IC50 was 10 to 40 µM.

Regarding `CN(C)c1ccc(Oc2ncc(Cl)cc2C(=O)NCc2ccc3c(N)nccc3c2)cc1` [Example 22.03], the IC50 was in the range of 10 to 40 µM.

`CN(C(=O)C(C)(C)C)c1ccc(Oc2ncc(Cl)cc2C(=O)NCc2ccc3c(N)nccc3c2)cc1` [Example 22.04]: the IC50 fell in the range of 10 to 40 µM.

For `Nc1nccc2cc(CNC(=O)c3cc(Cl)cnc3Oc3cccc(N4CCCC4=O)c3)ccc12` [Example 22.05], the IC50 is 10 to 40 µM.

For `Nc1nccc2cc(CNC(=O)c3cc(Cl)cnc3OCCN3CCCCC3)ccc12` [Example 22.06], the IC50 lay within 10 to 40 µM.

As to `CN1CCC(COc2ncc(Cl)cc2C(=O)NCc2ccc3c(N)nccc3c2)CC1` [Example 22.07], the IC50 is 10 to 40 µM.

Consider `Nc1nccc2cc(CNC(=O)c3cc(Cl)cnc3OCCN3CCCC3)ccc12` [Example 22.08], for which the IC50 was in the range of 10 to 40 µM.

Consider `CN(C)CCOc1ncc(Cl)cc1C(=O)NCc1ccc2c(N)nccc2c1` [Example 22.09], for which the IC50 lay in the range of 10 to 40 µM.

For `CCN(CC)CCCOc1ncc(Cl)cc1C(=O)NCc1ccc2c(N)nccc2c1` [Example 22.10], the IC50 is 10 to 40 µM.

Turning to `Nc1nccc2cc(CNC(=O)c3cc(Cl)cnc3OCCCN3CCCCC3)ccc12` [Example 22.11], the 50% inhibitory concentration (IC50) fell in the range of 10 to 40 µM.

On to `Nc1nccc2cc(CNC(=O)c3cc(Cl)cnc3Oc3ccc(N4CCNCC4)cc3)ccc12` [Example 22.12], for which the IC50 lay within 3 to 10 µM.

With `Nc1nccc2cc(CNC(=O)c3cc(Cl)cnc3Oc3cccc(N4CCNCC4)c3)ccc12` [Example 22.13], the IC50 lay within 10 to 40 µM.

Consider `CN(Cc1ccccc1)c1ncc(Cl)cc1C(=O)NCc1ccc2c(N)nccc2c1` [Example 28.01, N-((1-aminoisoquinolin-6-yl)methyl)-2-(benzyl(methyl)amino)-5-chloronicotinamide], for which the IC50 lay within 10 to 40 µM.

In the case of `CN(CC1CCN(c2ccncc2)CC1)c1ncc(Cl)cc1C(=O)NCc1ccc2c(N)nccc2c1` [Example 28.02, N-((1-aminoisoquinolin-6-yl)methyl)-5-chloro-2-(methyl((1-(pyridin-4-yl)piperidin-4-yl)methyl)amino)nicotinamide], the IC50 was 10 to 40 µM.

Turning to `CN(C)CCCOc1cccc(CN(C)c2ncc(Cl)cc2C(=O)NCc2ccc3c(N)nccc3c2)c1` [Example 28.03, N-((1-aminoisoquinolin-6-yl)methyl)-5-chloro-2-((3-(3-(dimethylamino)propoxy)benzyl)(methyl)amino)nicotinamide], the IC50 fell in the range of 3 to 10 µM.

Regarding `CN(c1ncc(Cl)cc1C(=O)NCc1ccc2c(N)nccc2c1)C1CCOCC1` [Example 28.04, N-((1-aminoisoquinolin-6-yl)methyl)-5-chloro-2-(methyl(tetra hydro-2H-pyran-4-yl)amino)nicotinamide], the IC50 fell in the range of 10 to 40 µM.

In the case of `CN(c1ccccc1)c1ncc(Cl)cc1C(=O)NCc1ccc2c(N)nccc2c1` [Example 28.05, N-((1-aminoisoquinolin-6-yl)methyl)-5-chloro-2-(methyl(phenyl)amino)nicotinamide], the IC50 was in the range of 10 to 40 µM.

Take `CN(c1cccc(Cl)c1)c1ncc(Cl)cc1C(=O)NCc1ccc2c(N)nccc2c1` [Example 28.06]: the IC50 lay within 10 to 40 µM.

As for `Nc1nccc2cc(CNC(=O)c3cncc(-c4ccccc4)c3)ccc12` [Example 29.01], the IC50 is 10 to 40 µM.

As for `Nc1nccc2cc(CNC(=O)c3cncc(-c4ccnn4Cc4ccccc4)c3)ccc12` [Example 29.03, N-((1-aminoisoquinolin-6-yl)methyl)-5-(1-benzyl-1H-pyrazol-5-yl)nicotinamide], the IC50 was in the range of 3 to 10 µM.

`Nc1nccc2cc(CNC(=O)c3cncc(CN4CCNCC4)c3)ccc12` [Example 29.04]: the IC50 fell in the range of 10 to 40 µM.

In the case of `Nc1nccc2cc(CNC(=O)c3cccc(CN4CCN(CC5CCCC5)CC4)c3)ccc12` [Example 29.09], the IC50 was in the range of 3 to 10 µM.

In the case of `CN1CCN(Cc2cc(Cl)cc(C(=O)NCc3ccc4c(N)nccc4c3)c2)CC1` [Example 29.10], the IC50 lay within 3 to 10 µM.

With `Nc1nccc2cc(CNC(=O)c3cc(Cl)cc(CN4CCN(CC5CCCC5)CC4)c3)ccc12` [Example 29.11, N-((1-aminoisoquinolin-6-yl)methyl)-3-chloro-5-((4-(cyclopentylmethyl)piperazin-1-yl)methyl)benzamide], the IC50 was 3 to 10 µM.

In the case of `C[C@@H]1CCC[C@H](C)N1CC(=O)Nc1cc(Cl)cc(C(=O)NCc2ccc3c(N)nccc3c2)c1` [Example 32.05], the IC50 was 3 to 10 µM.

Turning to `COc1ccc(-n2cc(C(F)F)nn2)c(CNC(=O)c2nccnc2NCC2CCN(C)CC2)c1F` [Example 33.22], the IC50 is 10 to 40 µM.

For `Cc1cc(CN)cc(C)c1CNC(=O)c1nccnc1NCC1CCN(C)CC1` [Example 33.23], the concentration for half-maximal inhibition (IC50) was in the range of 10 to 40 µM.

Usually IC50 stands for the concentration at which inhibition is half-maximal.
